In general, IC50 refers to the point on the concentration scale where inhibition reaches its midpoint. Usually Ki stands for the equilibrium dissociation constant of an inhibitor or competing ligand from its target. A high value points to lower affinity.

Among the data in BindingDB's records for doi:10.1080/14756360310001613094 (Xiamen University, 2003) are IC50 and Ki values, retold here.

Each structure is given as a SMILES string.

The target of this experiment is T1, Polyphenol oxidase 2 (Agaricus bisporus, UniProt O42713).
T1 sequence (O42713 whole entry): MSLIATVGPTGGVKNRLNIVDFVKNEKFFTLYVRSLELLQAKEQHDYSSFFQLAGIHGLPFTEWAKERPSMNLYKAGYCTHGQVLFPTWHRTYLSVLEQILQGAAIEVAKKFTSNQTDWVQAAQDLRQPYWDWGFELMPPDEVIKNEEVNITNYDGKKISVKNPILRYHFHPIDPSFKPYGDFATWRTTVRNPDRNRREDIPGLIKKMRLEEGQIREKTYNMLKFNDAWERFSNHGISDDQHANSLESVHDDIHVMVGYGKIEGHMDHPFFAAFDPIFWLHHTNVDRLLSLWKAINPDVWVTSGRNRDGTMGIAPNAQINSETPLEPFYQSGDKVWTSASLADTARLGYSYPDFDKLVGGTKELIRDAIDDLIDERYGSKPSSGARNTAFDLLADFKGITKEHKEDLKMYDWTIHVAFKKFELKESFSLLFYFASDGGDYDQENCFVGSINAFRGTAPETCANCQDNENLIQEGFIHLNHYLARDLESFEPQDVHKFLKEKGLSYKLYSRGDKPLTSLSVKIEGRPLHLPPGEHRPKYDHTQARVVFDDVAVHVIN
The experiment in a line: Inhibition Assay. An excerpt:
Inhibition of alklbenzaldehydes on tyrosinase enzyme.
For `CCCc1ccc(C=O)cc1` [p-Propyl-benzaldehyde, e], half-maximal inhibition (IC50) was put at 75 µM. On the same count and under the same terms, in the case of `CCCCc1ccc(C=O)cc1` [p-butyl-benzaldehyde, h] it was 38 µM; in that of `CCCCCCCCc1ccc(C=O)cc1` [p-Octylbenzaldehyde, l], 10 µM; in that of `CCCCCCc1ccc(C=O)cc1` [p-Hexylbenzaldehyde, j], 8 µM. Take `Cc1ccccc1C=O` [o-Tolualdehyde, a]: the half-maximal inhibitory concentration (IC50) amounted to 2600 µM and the affinity corresponds to a Ki of 1850 µM. Consider `CC(C)c1ccc(C=O)cc1` [p-Isopropylbenzaldehyde, f], for which the IC50 was 75 µM. Compound `CC(C)(C)c1ccc(C=O)cc1` [p-Tert-butylbenzaldehyde, g] returned an IC50 of 38 µM. The compound `CCc1ccc(C=O)cc1` [p-Ethylbenzaldehyde, d] returned an IC50 of 95 µM.

For the compound `CCCCCCCc1ccc(C=O)cc1` [p-Heptylbenzaldehyde, k], the IC50 came out at 8.8 µM. The compound `Cc1cccc(C=O)c1` [m-Tolualdehyde, b] gave an IC50 of 450 µM and an inhibitory constant (Ki) of 290 µM. Consider `CCCCCc1ccc(C=O)cc1` [p-Pentylbenzaldehyde, i], for which half-maximal inhibition (IC50) required 13.5 µM. Compound `Cc1ccc(C=O)cc1` [4-Methylbenzaldehyde] came in with an IC50 of 120 µM.
